From patent publication US20250115583A1, “BICYCLIC INDAZOLE GLUCOCORTICOID RECEPTOR ANTAGONISTS” (Corcept Therapeutics Incorporated, priority 2021, published 2025) come the findings set out here.

As a reminder, the Ki is a dissociation constant, usually derived from enzyme kinetics or from competition with a known ligand. A high value points to a looser hold on the target.

Each structure is given as a SMILES string.

Sequence of glucocorticoid receptor (P04150 whole entry): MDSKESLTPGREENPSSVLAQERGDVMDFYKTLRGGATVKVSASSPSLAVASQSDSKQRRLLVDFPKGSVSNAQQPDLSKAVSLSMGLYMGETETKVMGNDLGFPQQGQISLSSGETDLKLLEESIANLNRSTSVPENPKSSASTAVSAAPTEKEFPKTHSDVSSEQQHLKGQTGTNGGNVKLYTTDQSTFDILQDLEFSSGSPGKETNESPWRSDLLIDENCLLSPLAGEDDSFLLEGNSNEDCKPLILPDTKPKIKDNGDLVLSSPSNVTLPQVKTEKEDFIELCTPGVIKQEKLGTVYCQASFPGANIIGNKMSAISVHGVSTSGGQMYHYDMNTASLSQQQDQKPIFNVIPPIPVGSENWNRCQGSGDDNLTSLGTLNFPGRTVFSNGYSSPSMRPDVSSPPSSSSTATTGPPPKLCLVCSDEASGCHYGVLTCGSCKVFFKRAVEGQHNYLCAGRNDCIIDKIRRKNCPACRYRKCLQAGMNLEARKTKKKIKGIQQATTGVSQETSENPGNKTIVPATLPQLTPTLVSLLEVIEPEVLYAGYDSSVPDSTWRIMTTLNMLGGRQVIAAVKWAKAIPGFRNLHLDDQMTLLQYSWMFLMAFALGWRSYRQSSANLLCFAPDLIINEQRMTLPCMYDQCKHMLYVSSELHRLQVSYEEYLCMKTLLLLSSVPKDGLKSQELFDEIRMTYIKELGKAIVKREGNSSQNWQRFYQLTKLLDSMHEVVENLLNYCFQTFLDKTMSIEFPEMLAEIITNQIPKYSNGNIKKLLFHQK

This assay has as its target glucocorticoid receptor (Homo sapiens (Human), UniProt P04150). The assay can be described thus: HepG2 TAT assay: inhibition of dexamethasone-induced tyrosine aminotransferase (TAT) activity. The class given is cell-based. As to conditions: HepG2 cells, challenge of 100 nM dexamethasone, 18-24 hr; IC50 converted to Ki by Cheng and Prusoff equation. Summed up: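 Cells lysed 15 min at 4 °C; TAT enzyme reaction 2 h at 37 °C, stopped with KOH, 30 min further at 37 °C. Inhibition fitted to 4-parameter logistic.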
`Cc1cc2c(cnn2-c2ccc(F)cc2)cc1[C@@]12CN(C(=O)c3cccc(C(F)(F)F)n3)C[C@@H]1[C@H]2c1ccccc1` (stereo in doubt) [Example 145, (1-(1-(4-fluorophenyl)-6-methyl-1H-indazol-5-yl)-6-phenyl-3-azabicyclo[3.1.0]hexan-3-yl)(6-(trifluoromethyl)pyridin-2-yl)methanone] registered an inhibitory constant (Ki) of 0.048 µM.

For `Cc1cc2c(cnn2-c2ccc(F)cc2)cc1[C@@]12CN(C(=O)c3ncn(C)n3)C[C@@H]1[C@H]2c1ccccc1` (single isomer, unassigned) [Example 172, (1-(1-(4-fluorophenyl)-6-methyl-1H-indazol-5-yl)-6-phenyl-3-azabicyclo[3.1.0]hexan-3-yl)(1-methyl-1H-1,2,4-triazol-3-yl)methanone], affinity was put at a Ki of 0.026 µM. As to `Cc1cc2c(cnn2-c2ccc(F)cc2)cc1[C@@]12CN(S(C)(=O)=O)C[C@@H]1[C@H]2C(=O)Nc1ccc(F)cn1` [Example 67], the inhibitory constant (Ki) is 0.084 µM.

For `CCOC1(c2ccccc2)CC2CN(S(=O)(=O)c3cnn(C)c3)CC2(c2cc3cnn(-c4ccc(F)cc4)c3cc2C)C1` (stereo not drawn) [Example 12], affinity was put at a Ki of 0.17 µM. The compound `Cc1cc2c(cnn2-c2ccc(F)cc2)cc1[C@@]12CN(S(=O)(=O)c3cnn(C)n3)C[C@@H]1[C@H]2c1ccccc1` [Example 71] had an inhibition constant Ki of 0.015 µM. Compound `CCCn1cc(S(=O)(=O)N2CC3CC(Oc4ccccc4)CC3(c3cc4cnn(-c5ccc(F)cc5)c4cc3C)C2)cn1` (stereo not drawn) [Example 43] returned a Ki of 0.041 µM.

With `Cc1cc2c(cnn2-c2ccc(F)cc2)cc1[C@@]12CN(C(=O)c3ccc(F)cn3)C[C@@H]1[C@H]2c1ccccc1` (single isomer, unassigned) [Example 152, (1-(1-(4-fluorophenyl)-6-methyl-1H-indazol-5-yl)-6-phenyl-3-azabicyclo[3.1.0]hexan-3-yl)(5-fluoropyridin-2-yl)methanone], the affinity, expressed as Ki, was 0.02 µM. In turn, `Cc1cc2c(cnn2-c2ccc(F)cc2)cc1[C@@]12CN(S(=O)(=O)c3cnn(C)n3)C[C@@H]1[C@@H]2CO` (stereo in doubt) [Example 48, (1-(1-(4-fluorophenyl)-6-methyl-1H-indazol-5-yl)-3-((2-methyl-2H-1,2,3-triazol-4-yl)sulfonyl)-3-azabicyclo[3.1.0]hexan-6-yl) methanol] gave an inhibitory constant (Ki) of 0.57 µM.

On to `Cc1cc2c(cnn2-c2ccc(F)cc2)cc1[C@]12CN(S(=O)(=O)c3cnn(C)n3)C[C@H]1[C@@H]2C(=O)Nc1ccccc1` [Example 62], for which the Ki turned out to be 0.038 µM. On to `Cc1cc2c(cnn2-c2ccc(F)cc2)cc1[C@@]12CN(C(=O)c3ccccc3F)C[C@@H]1[C@H]2c1ccccc1` (single isomer, unassigned) [Example 128, (2-fluorophenyl)(1-(1-(4-fluorophenyl)-6-methyl-1H-indazol-5-yl)-6-phenyl-3-azabicyclo[3.1.0]hexan-3-yl)methanone], for which the affinity corresponds to a Ki of 0.0059 µM.

For the compound `Cc1cc2c(cnn2-c2ccc(F)cc2)cc1[C@@]12CN(C(=O)c3nccs3)C[C@@H]1[C@H]2c1ccccc1` (stereo in doubt) [Example 158, (1-(1-(4-fluorophenyl)-6-methyl-1H-indazol-5-yl)-6-phenyl-3-azabicyclo[3.1.0]hexan-3-yl)(thiazol-2-yl)methanone], affinity was put at a Ki of 0.012 µM. The same measure for `Cc1ccnc(C(=O)N2C[C@@H]3[C@@H](c4ccccc4)[C@]3(c3cc4cnn(-c5ccc(F)cc5)c4cc3C)C2)c1` (single isomer, unassigned) [Example 146, (1-(1-(4-fluorophenyl)-6-methyl-1H-indazol-5-yl)-6-phenyl-3-azabicyclo[3.1.0]hexan-3-yl)(4-methylpyridin-2-yl)methanone]: 0.014 µM; for `Cc1cc2c(cnn2-c2ccc(F)cc2)cc1[C@@]12CN(C(=O)c3ccccc3N3CCOCC3)C[C@@H]1[C@H]2c1ccccc1` (stereo in doubt) [Example 174, (1-(1-(4-fluorophenyl)-6-methyl-1H-indazol-5-yl)-6-phenyl-3-azabicyclo[3.1.0]hexan-3-yl)(2-morpholinophenyl)methanone]: 0.039 µM; for `Cc1cc2c(cnn2-c2ccc(F)cc2)cc1C12CC(Oc3ccccc3)CC1CN(C(=O)OC(C)(C)C)C2` (stereo not drawn) [Example 45]: 0.096 µM.

For `Cc1noc([C@@H]2[C@H]3CN(S(=O)(=O)c4cnn(C)n4)C[C@]32c2cc3cnn(-c4ccc(F)cc4)c3cc2C)n1` (stereo in doubt) [Example 131, 5-(1-(1-(4-fluorophenyl)-6-methyl-1H-indazol-5-yl)-3-((2-methyl-2H-1,2,3-triazol-4-yl)sulfonyl)-3-azabicyclo[3.1.0]hexan-6-yl)-3-methyl-1,2,4-oxadiazole], the Ki was 0.24 µM.

For `Cc1cc2c(cnn2-c2ccc(F)cc2)cc1[C@@]12CN(C(=O)N3CCCC3)C[C@@H]1[C@H]2c1ccccc1` (single isomer, unassigned) [Example 126, (1-(1-(4-fluorophenyl)-6-methyl-1H-indazol-5-yl)-6-phenyl-3-azabicyclo[3.1.0]hexan-3-yl)(pyrrolidin-1-yl)methanone], the inhibitory constant (Ki) was found to be 0.034 µM. Turning to `Cc1cc2c(cnn2-c2ccc(F)cc2)cc1[C@@]12CN(C(=O)c3ccc(C4CC4)cn3)C[C@@H]1[C@H]2c1ccccc1` (single isomer, unassigned) [Example 167, (5-cyclopropylpyridin-2-yl)(1-(1-(4-fluorophenyl)-6-methyl-1H-indazol-5-yl)-6-phenyl-3-azabicyclo[3.1.0]hexan-3-yl)methanone], the inhibitory constant (Ki) amounted to 0.021 µM.

In the case of `Cc1cc2c(cnn2-c2ccc(F)cc2)cc1[C@]12CN(S(=O)(=O)c3cncc(F)c3)C[C@H]1[C@@H]2c1ccccc1` [Example 78], the affinity corresponds to a Ki of 0.025 µM. `Cc1cc2c(cnn2-c2ccc(F)cc2)cc1C12CN(S(=O)(=O)c3cnn(C)c3)CC1CC(O)(c1nccs1)C2` (stereo not drawn) [Example 2, 3a-(1-(4-fluorophenyl)-6-methyl-1H-indazol-5-yl)-2-((1-methyl-1H-pyrazol-4-yl)sulfonyl)-5-(thiazol-2-yl)octahydrocyclopenta[c]pyrrol-5-ol] showed a Ki of 0.49 µM. `Cc1cc2c(cnn2-c2ccc(F)cc2)cc1C12CN(S(=O)(=O)c3cnn(C)n3)CC1C2COc1ccc(Cl)cc1` (single isomer, unassigned) [Example 53, 5-(6-((4-chlorophenoxy)methyl)-3-((2-methyl-2H-1,2,3-triazol-4-yl)sulfonyl)-3-azabicyclo[3.1.0]hexan-1-yl)-1-(4-fluorophenyl)-6-methyl-1H-indazole] showed a Ki of 0.11 µM. For `CCn1ncc(S(=O)(=O)N2C[C@H]3[C@H](c4ccccc4)[C@@]3(c3cc4cnn(-c5ccc(F)cc5)c4cc3C)C2)n1` [Example 74], the Ki amounted to 0.015 µM. For the compound `CC(=O)NC[C@@H]1[C@H]2CN(S(=O)(=O)c3cnn(C)n3)C[C@@]12c1cc2cnn(-c3ccc(F)cc3)c2cc1C` (racemic) [Example 135, N-((1-(1-(4-fluorophenyl)-6-methyl-1H-indazol-5-yl)-3-((2-methyl-2H-1,2,3-triazol-4-yl)sulfonyl)-3-azabicyclo[3.1.0]hexan-6-yl)methyl)acetamide], the inhibitory constant (Ki) was 0.3 µM.

`CCn1ccc(S(=O)(=O)N2C[C@@H]3[C@@H](c4ccccc4)[C@]3(c3cc4cnn(-c5ccc(F)cc5)c4cc3C)C2)n1` [Example 92] showed a Ki of 0.0095 µM. As to `Cc1cc2c(cnn2-c2ccc(F)cc2)cc1[C@@]12CN(C(=O)N3CCOCC3)C[C@@H]1[C@H]2c1ccccc1` (stereo in doubt) [Example 121, (1-(1-(4-fluorophenyl)-6-methyl-1H-indazol-5-yl)-6-phenyl-3-azabicyclo[3.1.0]hexan-3-yl)(morpholino)methanone], the affinity, expressed as Ki, was 0.049 µM. The result for `CCS(=O)(=O)N1C[C@@H]2[C@@H](c3ccccc3)[C@]2(c2cc3cnn(-c4ccc(F)cc4)c3cc2C)C1` [Example 94] reads 0.031 µM; that for `Cc1cc2c(cnn2-c2ccc(F)cc2)cc1[C@]12CN(S(=O)(=O)c3cn(C)nn3)C[C@H]1[C@@H]2c1ccccc1` [Example 97], 0.032 µM. `Cc1cc2c(cnn2-c2ccc(F)cc2)cc1[C@@]12CN(C(=O)c3ncccc3F)C[C@@H]1[C@H]2c1ccccc1` (stereo in doubt) [Example 156, (1-(1-(4-fluorophenyl)-6-methyl-1H-indazol-5-yl)-6-phenyl-3-azabicyclo[3.1.0]hexan-3-yl)(3-fluoropyridin-2-yl)methanone] displayed an inhibitory constant (Ki) of 0.02 µM. `COC1(c2ccccc2)CC2CN(S(=O)(=O)C3(C)CC3)CC2(c2cc3cnn(-c4ccc(F)cc4)c3cc2C)C1` (stereo not drawn) [Example 28] yielded a Ki of 0.032 µM. For `CO[C@]1(c2ccccc2)C[C@H]2CN(S(=O)(=O)c3cnn(C)c3)C[C@@]2(c2cc3cnn(-c4ccc(F)cc4)c3cc2C)C1` [Example 8, 1-(4-fluorophenyl)-5-((3aS,5R,6aR)-5-methoxy-2-((1-methyl-1H-pyrazol-4-yl)sulfonyl)-5-phenylhexahydrocyclopenta[c]pyrrol-3a(1H)-yl)-6-methyl-1H-indazole], the Ki is 0.31 µM. Regarding `Cc1cc2c(cnn2-c2ccc(F)cc2)cc1C12CN(S(=O)(=O)c3cnn(C)c3)CC1CC(O)(c1ccccn1)C2` (stereo not drawn) [Example 15], the affinity, expressed as Ki, was 0.33 µM.

Compound `COc1ccnc(C(=O)N2C[C@@H]3[C@@H](c4ccccc4)[C@]3(c3cc4cnn(-c5ccc(F)cc5)c4cc3C)C2)c1` (stereo in doubt) [Example 169, (1-(1-(4-fluorophenyl)-6-methyl-1H-indazol-5-yl)-6-phenyl-3-azabicyclo[3.1.0]hexan-3-yl)(4-methoxypyridin-2-yl)methanone] came in with a Ki of 0.035 µM. The compound `Cc1cc2c(cnn2-c2ccc(F)cc2)cc1[C@@]12CN(S(=O)(=O)CC3CCOCC3)C[C@@H]1[C@H]2c1ccccc1` [Example 107] returned an inhibitory constant (Ki) of 0.032 µM.

The compound `Cc1cc2c(cnn2-c2ccc(F)cc2)cc1[C@]12CN(S(=O)(=O)c3cnn(C)c3)C[C@H]1[C@@H]2c1cccc(Cl)c1` [Example 96] displayed a Ki of 0.11 µM.
